Like-named read-outs stand apart in the source and are kept apart here.
Key:
HMEC-1 cells = assay: Crystal violet proliferation assay; format: cell-based, human; settings: HMEC-1, 72 h, read-out: IC50 endothelial cell proliferation
Experimental: HMEC-1 cells were seeded to a density of 1,500 cells/well. After 24 h of incubation, a zero point control was stained with crystal violet. The remaining cells were left untreated as positive control or treated with 0.3-1-3-10–30 µM of the indicated compounds. After 72 h additional incubation, relative proliferation was determined by crystal violet staining and quantified as absorption at 550 nm.
HMEC-1 were seeded into 96-well-plates (1,500 cells/well). After 24 h, the cells were stimulated with the indicated compounds. At the same time point, cells in a reference plate were stained with crystal violet, serving as initial cell number. After 72 hours of stimulation, cells were fixed and stained with crystal-violet solution for 10 minutes, washed with water, and air dried. Crystal violet was eluted with dissolving buffer and absorbance was measured at 550 nm (Tecan Sunrise Absorbance reader, TECAN, Crailsheim, Germany). In a parallel series of experiments, cells seeded at the same cell density as in the proliferation assays were treated with 30 µM of the respective compound for 72 h. Afterwards, 10 µg/ml propidium iodide was added for 30 min to counterstain cells for membrane integrity. Phase contrast and fluorescence images were obtained with an inverted Nikon microscope (Ti, Nikon, Düsseldorf, Germany) equipped with a 10x objective.

HUVECs [1] = assay: Cell viability assay (CellTiter-Blue) in confluent HUVECs; format: cell-based, human; settings: 30 µM, 16 h
Experimental: Figure 2 Cdk5 is expressed in HUVECs and HMEC-1 cells, and the compounds are not cytotoxic to endothelial cells at concentrations used in functional assays. A: Cdk5 protein expression in endothelial cells in comparison to human cortex. Cdk5 protein amount was analyzed by Western blot in samples of human cortex (HC), confluent HUVECs (HU) and HMEC-1 (HM). β-actin served as a loading control and for normalization of protein amount. Relative quantification (left panel) and one representative image (right panel) of three individual blots are shown. Note the much lower protein loading in the HC sample in the right panel. (n = 3, mean ± SEM, p>0.05, One Way ANOVA, Dunnett). B: Confluent HUVECs were treated for 16 h with 10 or 30 µM of the indicated compounds or left untreated as control. After addition of CellTiter-BlueTM Reagent, cells were incubated for 4 h and fluorescence was measured at 560 nm (n = 3, mean ± SEM, * p<0.05, One Way ANOVA, Dunnett).
HUVECs were seeded in 96-well plates. After reaching confluency, the cells were treated for 16 h with the indicated compounds or left untreated as control. After addition of CellTiter-Blue^TM Reagent (Promega Corporation, Madison, WI, USA), cells were incubated for additional 4 h and fluorescence was measured at 560 nm in a plate-reading photometer (SpectraFluor Plus; Tecan, Crailsheim, Germany).

endothelial cells [2] = tested on: endothelial cells; design: method as in PMID 20826806; settings: 10 µM; cited from earlier work
endothelial cells [3] = tested on: endothelial cells; design: method as in PMID 21487803; settings: cited from earlier work
HUVECs [4] = assay: Scratch assay (migration assay); format: cell-based, human
Experimental: A: HMEC-1 cells were seeded in the same density as for the proliferation assay and treated with the respective compound at 30 µM for 72 h to test whether reduced cell numbers in the proliferation assay are due to inhibition of proliferation or to excessive cell death. No increase of detached, obviously dead or propidium iodide positive cells was detected. B and C: Confluent layers of HUVECs were scratched and the cells were allowed to migrate for 16 h in the presence or absence of 10 µM of the compounds. B: The columns indicate the area re-covered by migrating cells (n = 3, mean ± SEM, * p<0.05, One Way ANOVA, Dunnett). C: Scratches at endpoint, representative images taken out of three experiments.
HUVECs were seeded into a 24-well plate. After reaching confluency, cells were scratched using a 100 µl pipette tip. The wounded monolayers were washed twice with PBS containing Ca^2+/Mg^2+; then growth medium containing the indicated concentration of the compounds was added. After 16 h of migration, cells were washed and subsequently fixed with 4% paraformaldehyde. […] Images were taken using the TILLvisON system (TILL Photonics GmbH, Gräfelfing, Germany) and a CCD-camera connected to an Axiovert 200 microscope (Zeiss, Oberkochen, Germany). Quantitative image analysis of the cell covered area was done by Wimasis GmbH, Munich. A completely closed scratch was set as 100% migration, the area of the original open scratch was set as 0% migration.

SMILES	IC50 (HMEC-1 cells; Homo sapiens) [µM]	cell viability in comparison to control (HUVECs [1])	also measured
CC(C)c1n[nH]c2c(NCc3ccccc3N)nc(NC[C@H](C)O)nc12 [LGR 1695, 7-(2-Aminobenzyl)amino-5(S)-[(2-hydroxypropyl)amino]-3-isopropyl-1(2)H–pyrazolo[4,3-d]pyrimidine]	10.2	weak but significant decrease of viability	
CC[C@H](CO)Nc1nc(NCc2ccccc2)c2ncn(C(C)C)c2n1 [roscovitine, (R)-roscovitine]			reduction of migration (endothelial cells [2]): 20%; concentration at which proliferation only started to be reduced (endothelial cells [3]): 30 µM
CC(C)c1n[nH]c2c(NCc3ccccc3)nc(NC[C@@H](C)O)nc12 [LGR 1667, 7-Benzylamino-5(R)-[(2-hydroxypropyl)amino]-3-isopropyl-1(2)H-pyrazolo[4,3-d]pyrimidine]	9.54		
CC(C)n1cnc2c(NCc3ccccc3N)nc(NC[C@@H](C)O)nc21 [LGR 1730]	~20	weak but significant decrease of viability	effect on endothelial cell migration (in words) (HUVECs [4]; 10 µM, 16 h, HUVECs): no significant impact; IC50 (HMEC-1 cells): 18.2 µM
CC(C)c1n[nH]c2c(NCc3ccccc3N)nc(NC3CCCCC3N)nc12 (centres unmarked) [LGR 1430, 7-(2-Aminobenzyl)amino-5-[(2-E/Z-aminocyclohexyl)amino]-3-isopropyl-1(2)H-pyrazolo-[4,3-d]pyrimidine]	6.16		effect on migration (in words) (HUVECs [4]; 30 µM, data not shown): no detectable effect
